Data: PMC6164588 (International Journal of Environmental Research and Public …, 2018)
Read-outs that look alike come from different tables or passages of the source.

Tests used:
[1] = system: Salmonella typhimurium TA97 strain; assay: Ames assay (Salmonella typhimurium/reverse mutation assay), TA97 strain
Description: (§1) TA97, TA98, TA100, and TA102 were used as standard test strains. The strains were provided by Jiangsu Provincial Center for Disease Control and Prevention and Guizhou Medical University. TA97 and TA98 strains primarily detect the genotoxic substances of frameshift mutants, while TA100 and TA102 strains detect DNA as a mutagenic substance for base pair substitution. TA102 strain has a different specificity from the other Salmonella strains routinely used in mutagenicity screening. It detects a variety of oxidative mutagens and seems to be more sensitive to some aldehydes and some DNA damaging compounds, which are negative with other Salmonella strains.
(§2) According to the standard Ames bacterial mutagenicity assay and Safety and Technical Standards for Cosmetics, the experiments were performed by the plate incorporation method with or without liver microsomal metabolic activation (S9) mixture. For the pure materials, the highest dose group was generally 5 mg/plate or 5 μL/plate. After the bacterial inhibition experiment, five dose groups (0.05, 0.5, 5, 50, 500 μg/plate) were determined for testing the chemicals. Three parallel plates were prepared for each dose. The chemicals (test chemicals or positive control drugs), the S9 system (with or without), and the S. typhimurium strains (TA97, TA98, TA100, TA102) were added to the nutrient mediums. The negative control (blank and solvent) groups and the positive control groups were also done with three parallel plates.
(§3) The chemicals and concentrations were as follows: In the absence of the S9 system: Dexon 50 μg/plate for the TA97, TA98, and TA102 strains, and NaN3 1.5 μg/plate for the TA100 strain.
(§4) Five concentrations for each chemical were tested for mutagenicity in the standard plate pre-incubation assay. The reported numbers of reverse mutation colonies per plate are mean values from triplicates obtained in one experiment. The experiment was repeated at two times.
(§5) All the plates for the experiments were incubated under the same conditions: 37 ± 0.5 °C, 48 h, dark.
(§6) The test series was set as 100%, 50%, 10%, 5%, and 0.5%. […] Then, 100 μL of the mixtures, which were at different doses, was added to each plate.
(§7) The mutagenicity ratio (MR) is calculated as MR = x/x0(1) where x is the number of reverse mutation colonies on compound-treated plates and x0 is the number of reverse mutation colonies in the negative control group.
(§8) When the mutagenicity ratio (MR) is ≥2 and the dose–response relationship and the background are normal, the mutagenesis is judged as positive.

[2] = system: Salmonella typhimurium TA98 strain; assay: Ames assay (Salmonella typhimurium/reverse mutation assay), TA98 strain
Description: as §1, §2, §3, §4, §5, §6, §7, §8

[3] = system: Salmonella typhimurium TA100 strain; conditions: for Mutation effect, TA100 strain: absence of S9
Description: as §1, §2, §3, §4, §5, §6, §7, §8

[4] = system: Salmonella typhimurium TA102 strain; assay: Ames assay (Salmonella typhimurium/reverse mutation assay), TA102 strain
Description: as §1, §2, §3, §4, §5, §6, §7, §8

[5] = system: S. typhimurium TA97 strain; assay: Bacterial inhibition experiment, TA97 strain
Experimental: (§9) Bacterial inhibition experiment is necessary according to the standard Ames bacterial mutagenicity assay. Safety and Technical Standards for Cosmetics require that the maximum chemical dose should be 5 mg/plate. […] The maximum concentration of both were 50 mg/mL, then diluted to 25 mg/mL, 10 mg/mL, 5 mg/mL, and 0.5 mg/mL. Plates were poured with LB medium, and 0.1 mL of the above solution and 0.1 mL of bacterial solution per dish were added.
(§10) The criteria for determining the highest dose of the test substance are its toxicity to the bacteria and its solubility. A decrease in spontaneous reversion variables, a decrease in background bacteria, or a decrease in the number of bacteria in the culture being treated are signs of toxicity.
(§11) For this, bacterial growth inhibition tests were designed and carried out.

[6] = system: S. typhimurium TA98 strain; assay: Bacterial inhibition experiment, TA98 strain
Experimental: as §9, §10, §11

[7] = system: S. typhimurium TA100 strain; assay: Bacterial inhibition experiment, TA100 strain
Experimental: as §9, §10, §11

[8] = system: S. typhimurium TA102 strain; assay: Bacterial inhibition experiment, TA102 strain
Experimental: as §9, §10, §11

TA98 strain = conditions: concentrations of 300 μg/plate and 500 μg/plate; cited from earlier work
TA100 strain = conditions: concentrations of 300 μg/plate and 500 μg/plate; cited from earlier work
[9] = dose 50 μg/plate, −S9, positive control

O=C(c1ccccc1)c1ccc(O)cc1O [BP-1, benzophenone-1]
Mutagenic activities, TA97 strain ([1]; +S9 system, doses from 0.05 μg/plate to 500 μg/plate): no mutagenic activities were detected
Mutagenicity, TA97 strain ([1]; absence of S9, doses of 0.05 and 0.5 μg/plate): significant mutagenicity
Reverse mutation colonies TA97 +S9 ([1]; dose 0.05 μg/plate): 151 ± 8 colonies per plate
Mutagenicity ratio (MR) flag TA97 −S9 ([1]; dose 0.05 μg/plate): * (MR ≥ 2 compared to control)
Reverse mutation colonies TA97 −S9 ([1]; dose 0.05 μg/plate): 925 ± 13 colonies per plate
Reverse mutation colonies TA97 +S9 ([1]; dose 0.5 μg/plate): 143 ± 10 colonies per plate
Mutagenicity ratio (MR) flag TA97 −S9 ([1]; dose 0.5 μg/plate): * (MR ≥ 2 compared to control)
Reverse mutation colonies TA97 −S9 ([1]; dose 0.5 μg/plate): 697 ± 56 colonies per plate
Reverse mutation colonies TA97 +S9 ([1]; dose 5 μg/plate): 146 ± 10 colonies per plate
Reverse mutation colonies TA97 −S9 ([1]; dose 5 μg/plate): 185 ± 10 colonies per plate
Reverse mutation colonies TA97 +S9 ([1]; dose 50 μg/plate): 149 ± 11 colonies per plate
Reverse mutation colonies TA97 −S9 ([1]; dose 50 μg/plate): 83 ± 6 colonies per plate
Reverse mutation colonies TA97 +S9 ([1]; dose 500 μg/plate): 88 ± 20 colonies per plate
Reverse mutation colonies TA97 −S9 ([1]; dose 500 μg/plate): 6 ± 1 colonies per plate
Reverse mutation colonies TA98 +S9 ([2]; dose 0.05 μg/plate): 51 ± 7 colonies per plate
Reverse mutation colonies TA98 −S9 ([2]; dose 0.05 μg/plate, −S9): 43 ± 13 colonies per plate
Reverse mutation colonies TA98 +S9 ([2]; dose 0.5 μg/plate): 48 ± 2 colonies per plate
Reverse mutation colonies TA98 −S9 ([2]; dose 0.5 μg/plate, −S9): 46 ± 8 colonies per plate
Reverse mutation colonies TA98 +S9 ([2]; dose 5 μg/plate): 52 ± 7 colonies per plate
Reverse mutation colonies TA98 −S9 ([2]; dose 5 μg/plate, −S9): 33 ± 3 colonies per plate
Reverse mutation colonies TA98 +S9 ([2]; dose 50 μg/plate): 36 ± 1 colonies per plate
Reverse mutation colonies TA98 −S9 ([2]; dose 50 μg/plate, −S9): 22 ± 9 colonies per plate
Reverse mutation colonies TA98 +S9 ([2]; dose 500 μg/plate): 23 ± 2 colonies per plate
Reverse mutation colonies TA98 −S9 ([2]; dose 500 μg/plate, −S9): 0 ± 1 colonies per plate
Mutagenicity result, TA98 strain ([2]; systems both with and without S9): not mutagenic
Mutation effect, TA100 strain ([3]; dose 0.5 μg/plate): significant mutation effect
Mutation effect, TA100 strain ([3]; doses of 5, 50, and 500 μg/plate): no obvious mutations
Reverse mutation colonies TA100 +S9 ([3]; dose 0.05 μg/plate): 174 ± 13 colonies per plate
Reverse mutation colonies TA100 −S9 ([3]; dose 0.05 μg/plate, −S9): 239 ± 17 colonies per plate
Reverse mutation colonies TA100 +S9 ([3]; dose 0.5 μg/plate): 193 ± 12 colonies per plate
Mutagenicity ratio (MR) flag TA100 −S9 ([3]; dose 0.5 μg/plate, −S9): * (MR ≥ 2 compared to control)
Reverse mutation colonies TA100 −S9 ([3]; dose 0.5 μg/plate, −S9): 458 ± 29 colonies per plate
Reverse mutation colonies TA100 +S9 ([3]; dose 5 μg/plate): 191 ± 8 colonies per plate
Reverse mutation colonies TA100 −S9 ([3]; dose 5 μg/plate, −S9): 153 ± 2 colonies per plate
Reverse mutation colonies TA100 +S9 ([3]; dose 50 μg/plate): 196 ± 4 colonies per plate
Reverse mutation colonies TA100 −S9 ([3]; dose 50 μg/plate, −S9): 188 ± 15 colonies per plate
Reverse mutation colonies TA100 +S9 ([3]; dose 500 μg/plate): 122 ± 4 colonies per plate
Reverse mutation colonies TA100 −S9 ([3]; dose 500 μg/plate, −S9): 181 ± 10 colonies per plate
Reverse mutation colonies TA102 +S9 ([4]; dose 0.05 μg/plate, +S9): 350 ± 11 colonies per plate
Reverse mutation colonies TA102 −S9 ([4]; dose 0.05 μg/plate, −S9): 311 ± 12 colonies per plate
Reverse mutation colonies TA102 +S9 ([4]; dose 0.5 μg/plate, +S9): 369 ± 10 colonies per plate
Reverse mutation colonies TA102 −S9 ([4]; dose 0.5 μg/plate, −S9): 369 ± 18 colonies per plate
Reverse mutation colonies TA102 +S9 ([4]; dose 5 μg/plate, +S9): 443 ± 8 colonies per plate
Reverse mutation colonies TA102 −S9 ([4]; dose 5 μg/plate, −S9): 355 ± 20 colonies per plate
Reverse mutation colonies TA102 +S9 ([4]; dose 50 μg/plate, +S9): 429 ± 8 colonies per plate
Reverse mutation colonies TA102 −S9 ([4]; dose 50 μg/plate, −S9): 407 ± 16 colonies per plate
Reverse mutation colonies TA102 +S9 ([4]; dose 500 μg/plate, +S9): 390 ± 10 colonies per plate
Reverse mutation colonies TA102 −S9 ([4]; dose 500 μg/plate, −S9): 7 ± 4 colonies per plate
Mutagenicity, TA102 strain ([4]; presence or absence of S9): not mutagenic
Bacterial inhibition t-Test Result TA97 ([5]; dose 50 μg/plate): −
Bacterial inhibition t-Test Result TA97 ([5]; dose 500 μg/plate): + (t-test (p < 0.05))
Bacterial inhibition t-Test Result TA97 ([5]; dose 1000 μg/plate): + (t-test (p < 0.05))
Bacterial inhibition t-Test Result TA97 ([5]; dose 2500 μg/plate): ++ (t-test (p < 0.01))
Bacterial inhibition t-Test Result TA97 ([5]; dose 5000 μg/plate): ++ (t-test (p < 0.01))
Bacterial inhibition t-Test Result TA98 ([6]; dose 50 μg/plate): −
Bacterial inhibition t-Test Result TA98 ([6]; dose 500 μg/plate): + (t-test (p < 0.05))
Bacterial inhibition t-Test Result TA98 ([6]; dose 1000 μg/plate): + (t-test (p < 0.05))
Bacterial inhibition t-Test Result TA98 ([6]; dose 2500 μg/plate): ++ (t-test (p < 0.01))
Bacterial inhibition t-Test Result TA98 ([6]; dose 5000 μg/plate): ++ (t-test (p < 0.01))
Bacterial inhibition t-Test Result TA100 ([7]; dose 50 μg/plate): −
Bacterial inhibition t-Test Result TA100 ([7]; dose 1000 μg/plate): + (t-test (p < 0.05))
Bacterial inhibition t-Test Result TA100 ([7]; dose 2500 μg/plate): ++ (t-test (p < 0.01))
Bacterial inhibition t-Test Result TA100 ([7]; dose 5000 μg/plate): ++ (t-test (p < 0.01))
Bacterial inhibition t-Test Result TA102 ([8]; dose 50 μg/plate): −
Bacterial inhibition t-Test Result TA102 ([8]; dose 500 μg/plate): + (t-test (p < 0.05))
Bacterial inhibition t-Test Result TA102 ([8]; dose 1000 μg/plate): + (t-test (p < 0.05))
Bacterial inhibition t-Test Result TA102 ([8]; dose 2500 μg/plate): ++ (t-test (p < 0.01))
Bacterial inhibition t-Test Result TA102 ([8]; dose 5000 μg/plate): ++ (t-test (p < 0.01))
Mutagenicity, TA98 strain (TA98 strain): None of the compounds produced clear positive mutagenicity results
Mutagenicity, TA100 strain (TA100 strain): None of the compounds produced clear positive mutagenicity results

O=C1c2cccc(O)c2C(=O)c2c(O)cccc21 [Dantron, reference compound]
Reverse mutation colonies TA102 +S9 ([4]; dose 50 μg/plate, +S9): 625 ± 71 colonies per plate
Mutagenicity ratio (MR) flag TA102 +S9 ([4]; dose 50 μg/plate, +S9, positive control): * (MR ≥ 2 compared to control)

CN(C)c1ccc(N=NS(=O)(=O)[O-])cc1.[Na+] [Dexon, reference compound]
Reverse mutation colonies TA97 −S9 ([1]; dose 50 μg/plate): 1987 ± 203 colonies per plate
Mutagenicity ratio (MR) flag TA97 −S9 ([1]; dose 50 μg/plate, positive control): * (MR ≥ 2 compared to control)
Reverse mutation colonies TA98 −S9 ([2]; dose 50 μg/plate, −S9): 1065 ± 137 colonies per plate
Mutagenicity ratio (MR) flag TA98 −S9 [2, 9]: * (MR ≥ 2 compared to control)
Reverse mutation colonies TA102 −S9 ([4]; dose 50 μg/plate, −S9): 586 ± 83 colonies per plate
Mutagenicity ratio (MR) flag TA102 −S9 [4, 9]: * (MR ≥ 2 compared to control)
